Assay results taken from PubChem BioAssay AID330 (DTP/NCI, 2004).
“And” between values parts separate entries of the source, which are not always exact repeats. Equal values may be shown once. Inconclusive results and toxic doses are left out.

System: P388 leukemia ip, CD2F1 mice, survival T/C
Experiment: NCI In Vivo Anticancer Drug Screen. Data for tumor model P388 Leukemia (intraperitoneal) in CD2F1 (CDF1) mice
Conditions: endpoint: median survival time, higher = longer survival
Summary of the method: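 Mice carrying the transplanted tumor received test compound or vehicle. Survival was recorded in each group, and the value is the treated-group measurement divided by that of the vehicle-treated control group.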

[1] = dose: 60.0 mg/kg/injection, schedule: Q01DX005 (ip), vehicle: Klucel (hydroxypropylcellulose) (HPC)
[2] = dose: 120.0 mg/kg/injection, schedule: Q01DX005 (ip), vehicle: Klucel (hydroxypropylcellulose) (HPC)
[3] = dose: 240.0 mg/kg/injection, schedule: Q01DX005 (ip), vehicle: Klucel (hydroxypropylcellulose) (HPC)
[4] = dose: 60.0 mg/kg/injection, schedule: Q01DX005 (ip), vehicle: saline with Tween-80
[5] = dose: 120.0 mg/kg/injection, schedule: Q01DX005 (ip), vehicle: saline with Tween-80
[6] = dose: 240.0 mg/kg/injection, schedule: Q01DX005 (ip), vehicle: saline with Tween-80
[7] = dose: 100.0 mg/kg/injection, schedule: Q01DX001 (ip), vehicle: saline with Tween-80
[8] = dose: 200.0 mg/kg/injection, schedule: Q01DX001 (ip), vehicle: saline with Tween-80
[9] = dose: 400.0 mg/kg/injection, schedule: Q01DX001 (ip), vehicle: saline with Tween-80
[10] = dose: 100.0 mg/kg/injection, schedule: Q01DX009 (ip), vehicle: saline with Tween-80
[11] = dose: 200.0 mg/kg/injection, schedule: Q01DX009 (ip), vehicle: saline with Tween-80
[12] = dose: 400.0 mg/kg/injection, schedule: Q01DX009 (ip), vehicle: saline with Tween-80
[13] = dose: 50.0 mg/kg/injection, schedule: Q01DX009 (ip), vehicle: saline with Tween-80
[14] = dose: 50.0 mg/kg/injection, schedule: Q01DX009 (ip), vehicle: other
[15] = dose: 100.0 mg/kg/injection, schedule: Q01DX009 (ip), vehicle: other
[16] = dose: 200.0 mg/kg/injection, schedule: Q01DX009 (ip), vehicle: other
[17] = dose: 400.0 mg/kg/injection, schedule: Q04DX003 (ip), vehicle: saline with Tween-80
[18] = dose: 50.0 mg/kg/injection, schedule: Q01DX005 (ip), vehicle: saline with Tween-80
[19] = dose: 100.0 mg/kg/injection, schedule: Q01DX005 (ip), vehicle: saline with Tween-80
[20] = dose: 200.0 mg/kg/injection, schedule: Q01DX005 (ip), vehicle: saline with Tween-80
[21] = dose: 50.0 mg/kg/injection, schedule: Q01DX009 (ip), vehicle: Klucel (hydroxypropylcellulose) (HPC)
[22] = dose: 100.0 mg/kg/injection, schedule: Q01DX009 (ip), vehicle: Klucel (hydroxypropylcellulose) (HPC)
[23] = dose: 200.0 mg/kg/injection, schedule: Q01DX009 (ip), vehicle: Klucel (hydroxypropylcellulose) (HPC)

CCCN(CCNc1cc(OC)cc2cccnc12)C(C)C
T/C (dose: 12.5 mg/kg/injection, schedule: Q01DX005 (ip), vehicle: saline): 107 % of control
T/C (dose: 25.0 mg/kg/injection, schedule: Q01DX005 (ip), vehicle: saline): 107 % of control
T/C (dose: 50.0 mg/kg/injection, schedule: Q01DX005 (ip), vehicle: saline): 106 % of control and 88 % of control

COc1cc(C2c3cc4c(cc3OC(C)(N3CCCC3)C2C)OCO4)cc(OC)c1OC (configuration not stated)
T/C [1]: 100 % of control
T/C [2]: 102 % of control
T/C [3]: 105 % of control

CC(C)NC(=O)CN1C(=O)NC(C)(c2ccccc2)C1=O (configuration not stated)
T/C [4]: 101 % of control
T/C [5]: 95 % of control
T/C [6]: 94 % of control

CNCc1cccc2ccnc(C)c12
T/C [7]: 100 % of control
T/C [8]: 99 % of control
T/C [9]: 96 % of control

O=C(O)CCC(=O)Nc1ccccc1C(=O)O
T/C [10]: 110 % of control
T/C [11]: 100 % of control
T/C [12]: 110 % of control

CN1C(=O)C(=C/C=C/N(C)c2ccccc2)C(=O)N(C)C1=O
T/C [13]: 96 % of control
T/C [10]: 95 % of control
T/C [11]: 88 % of control

COc1cccc(C(O)c2ccncc2)c1OC (configuration not stated)
T/C (dose: 25.0 mg/kg/injection, schedule: Q01DX009 (ip), vehicle: water): 90 % of control
T/C (dose: 50.0 mg/kg/injection, schedule: Q01DX009 (ip), vehicle: water): 90 % of control
T/C (dose: 100.0 mg/kg/injection, schedule: Q01DX009 (ip), vehicle: water): 93 % of control
T/C (dose: 200.0 mg/kg/injection, schedule: Q01DX009 (ip), vehicle: water): 90 % of control

c1ccc2ccccc2c1
T/C [14]: 100 % of control
T/C [15]: 104 % of control
T/C [16]: 107 % of control

OC/C(Cl)=C(\Cl)CO
T/C (dose: 6.25 mg/kg/injection, schedule: Q01DX009 (ip), vehicle: saline): 110 % of control
T/C (dose: 12.5 mg/kg/injection, schedule: Q01DX009 (ip), vehicle: saline): 95 % of control
T/C (dose: 25.0 mg/kg/injection, schedule: Q01DX009 (ip), vehicle: saline): 100 % of control

O=C(Nc1ccc(C2=NCCN2)cc1)c1ccc(C(=O)Nc2ccc(C3=NCCN3)cc2)c(F)c1
T/C (dose: 12.5 mg/kg/injection, schedule: Q04DX003 (ip), vehicle: saline with Tween-80): 109 % of control
T/C (dose: 25.0 mg/kg/injection, schedule: Q04DX003 (ip), vehicle: saline with Tween-80): 122 % of control
T/C [10]: 181 % of control
T/C [11]: 250 % of control
T/C (dose: 264.0 mg/kg/injection, schedule: Q04DX003 (ip), vehicle: saline with Tween-80): 200 % of control
T/C [12]: 272 % of control
T/C [17]: 245 % of control
T/C (dose: 600.0 mg/kg/injection, schedule: Q04DX003 (ip), vehicle: saline with Tween-80): 259 % of control

COc1cc(NC(=O)C2=C(C)NC(C)=C(C(=O)Nc3cc(OC)c(Cl)cc3OC)C2c2cccc([N+](=O)[O-])c2)c(OC)cc1Cl
T/C [1]: 89 % of control
T/C [2]: 89 % of control

Cc1c(C)c2c(N)c3ccccc3nc2c2ccccc12
T/C (dose: 12.5 mg/kg/injection, schedule: Q01DX001 (ip), vehicle: saline with Tween-80): 101 % of control
T/C (dose: 25.0 mg/kg/injection, schedule: Q01DX001 (ip), vehicle: saline with Tween-80): 100 % of control
T/C (dose: 50.0 mg/kg/injection, schedule: Q01DX001 (ip), vehicle: saline with Tween-80): 115 % of control
T/C [7]: 111 % of control

C1CCc2nc3c(nc2C1)CCCC3
T/C [18]: 101 % of control
T/C [19]: 101 % of control
T/C [20]: 92 % of control

Cc1nnc2c3nccnc3c(N)nn12
T/C [4]: 96 % of control
T/C [5]: 104 % of control
T/C [6]: 104 % of control

CCOC(=O)c1ccc(NC(=O)Nc2cnccn2)cc1
T/C (dose: 12.5 mg/kg/injection, schedule: Q01DX009 (ip), vehicle: saline with Tween-80): 92 % of control
T/C (dose: 25.0 mg/kg/injection, schedule: Q01DX009 (ip), vehicle: saline with Tween-80): 93 % of control
T/C [13]: 86 % of control and 91 % of control
T/C [10]: 95 % of control
T/C [11]: 90 % of control

COC1OC2COC(c3ccccc3)OC2C(N)C1O (configuration not stated)
T/C [18]: 106 % of control
T/C [19]: 101 % of control
T/C [20]: 104 % of control

CCOP(=S)(N/N=C/c1ccc(Cl)s1)OCC
T/C (dose: 50.0 mg/kg/injection, schedule: Q01DX005 (ip), vehicle: Klucel (hydroxypropylcellulose) (HPC)): 115 % of control
T/C (dose: 100.0 mg/kg/injection, schedule: Q01DX005 (ip), vehicle: Klucel (hydroxypropylcellulose) (HPC)): 110 % of control
T/C (dose: 200.0 mg/kg/injection, schedule: Q01DX005 (ip), vehicle: Klucel (hydroxypropylcellulose) (HPC)): 114 % of control

CCCSc1nn2cc(NC(=O)OC)nc2s1
T/C [18]: 97 % of control
T/C [19]: 100 % of control
T/C [20]: 103 % of control

C[Si](C)(C)[Si](C)(C)C
T/C (dose: 50.0 mg/kg/injection, schedule: Q01DX009 (ip), vehicle: saline): 98 % of control
T/C (dose: 100.0 mg/kg/injection, schedule: Q01DX009 (ip), vehicle: saline): 111 % of control
T/C (dose: 200.0 mg/kg/injection, schedule: Q01DX009 (ip), vehicle: saline): 102 % of control

C=C(C)C1CC2=C(C(=O)OC)C=C(O2)C(C(=C)C)C2OC(=O)/C(=C\C1O)C2O (configuration not stated)
T/C (dose: 4.0 mg/kg/injection, schedule: Q01DX005 (ip), vehicle: saline + alcohol): 103 % of control
T/C (dose: 8.0 mg/kg/injection, schedule: Q01DX005 (ip), vehicle: saline + alcohol): 103 % of control
T/C (dose: 16.0 mg/kg/injection, schedule: Q01DX005 (ip), vehicle: saline + alcohol): 99 % of control
T/C (dose: 32.0 mg/kg/injection, schedule: Q01DX005 (ip), vehicle: saline + alcohol): 99 % of control
T/C (dose: 64.0 mg/kg/injection, schedule: Q01DX005 (ip), vehicle: saline + alcohol): 101 % of control

CC/C(=N/NS(=O)(=O)c1ccc(C)cc1)c1ccc([N+](=O)[O-])cc1
T/C (dose: 100.0 mg/kg/injection, schedule: Q04DX002 (ip), vehicle: saline): 100 % of control
T/C (dose: 200.0 mg/kg/injection, schedule: Q04DX002 (ip), vehicle: saline): 105 % of control
T/C (dose: 400.0 mg/kg/injection, schedule: Q04DX002 (ip), vehicle: saline): 100 % of control

O=C(NN(C(=O)c1ccccc1)c1ccccc1)c1ccccc1
T/C [18]: 95 % of control
T/C [19]: 92 % of control

COC(=O)c1ccc(CNC(=O)c2ccccc2C(=O)NCC2(CBr)OCCO2)cc1
T/C [21]: 113 % of control
T/C [22]: 99 % of control
T/C [23]: 96 % of control

Nc1ncnc2c1ncn2C1OCC(O)C1O (configuration not stated)
T/C (dose: 50.0 mg/kg/injection, schedule: Q01DX009 (ip), vehicle: suspension in saline): 119 % of control
T/C (dose: 100.0 mg/kg/injection, schedule: Q01DX009 (ip), vehicle: suspension in saline): 112 % of control

COc1ccc2c(c1)C1(C)c3cc(OC)ccc3OC1(C)O2 (configuration not stated)
T/C [14]: 103 % of control
T/C [15]: 95 % of control
T/C [16]: 103 % of control

O=c1[nH][nH]c(=O)c2[nH]cnc12
T/C (dose: 50.0 mg/kg/injection, schedule: Q04DX003 (ip), vehicle: saline with Tween-80): 98 % of control
T/C (dose: 100.0 mg/kg/injection, schedule: Q04DX003 (ip), vehicle: saline with Tween-80): 100 % of control
T/C (dose: 200.0 mg/kg/injection, schedule: Q04DX003 (ip), vehicle: saline with Tween-80): 100 % of control
T/C [17]: 106 % of control

CSc1nc2[nH]ncc2c(=O)[nH]1
T/C (dose: 25.0 mg/kg/injection, schedule: Q01DX009 (ip), vehicle: Klucel (hydroxypropylcellulose) (HPC)): 101 % of control
T/C [21]: 99 % of control
T/C [22]: 93 % of control
T/C [23]: 86 % of control

COC1CC(O)C2OC(c3ccccc3)OCC2O1 (configuration not stated)
T/C [7]: 101 % of control
T/C [8]: 105 % of control
T/C [9]: 99 % of control

CC(=O)OC1C=CCC2C(=O)c3cccc(O)c3C(=O)C12 (configuration not stated)
T/C [1]: 107 % of control
T/C [2]: 105 % of control
T/C [3]: 97 % of control
